Measured values taken from ChEMBL document CHEMBL5316337, “Critical Role of Position 10 Residue in the Polymyxin Antimicrobial Activity” (J Med Chem, 2023).
≈ marks a conversion by molar mass, not a printed value.

What was measured:
Format in all cases: functional
[1] = tested on: Pseudomonas aeruginosa; experiment: Antibacterial activity against polymyxin-susceptible Pseudomonas aeruginosa FADD1-PA038 clinical isolates assessed as reduction in bacterial growth by broth microdilution method
[2] = tested on: Klebsiella pneumoniae; experiment: Antibacterial activity against Carbapenem-resistant Klebsiella pneumoniae BM1 clinical isolates assessed as reduction in bacterial growth by broth microdilution method
[3] = tested on: Klebsiella pneumoniae; experiment: Antibacterial activity against Carbapenem-resistant Klebsiella pneumoniae FADD1-KP065 clinical isolates assessed as reduction in bacterial growth by broth microdilution method
[4] = tested on: Klebsiella pneumoniae; experiment: Antibacterial activity against polymyxin-susceptible Klebsiella pneumoniae ATCC 700721 clinical isolates assessed as reduction in bacterial growth by broth microdilution method
[5] = tested on: Pseudomonas aeruginosa; experiment: Antibacterial activity against polymyxin-susceptible Pseudomonas aeruginosa FADD1-PA025 clinical isolates assessed as reduction in bacterial growth by broth microdilution method
[6] = tested on: Acinetobacter baumannii; experiment: Antibacterial activity against polymyxin-susceptible Acinetobacter baumannii ATCC 17978 clinical isolates assessed as reduction in bacterial growth by broth microdilution method
[7] = tested on: Klebsiella pneumoniae; experiment: Antibacterial activity against Carbapenem-resistant Klebsiella pneumoniae FADD1-KP032 clinical isolates assessed as reduction in bacterial growth by broth microdilution method
[8] = tested on: Enterobacter cloacae; experiment: Antibacterial activity against polymyxin-susceptible Enterobacter cloacae FADD1-EC001 clinical isolates assessed as reduction in bacterial growth by broth microdilution method
[9] = tested on: Acinetobacter baumannii; experiment: Antibacterial activity against Carbapenem-resistant Acinetobacter baumannii FADD1-AB030 clinical isolates assessed as reduction in bacterial growth by broth microdilution method
[10] = tested on: Klebsiella pneumoniae; experiment: Antibacterial activity against Carbapenem-resistant Klebsiella pneumoniae FADD1-KP022 clinical isolates assessed as reduction in bacterial growth by broth microdilution method
[11] = tested on: Enterobacter cloacae; experiment: Antibacterial activity against polymyxin-susceptible Enterobacter cloacae FADD1-EC003 clinical isolates assessed as reduction in bacterial growth by broth microdilution method
[12] = tested on: Enterobacter cloacae; experiment: Antibacterial activity against polymyxin-susceptible Enterobacter cloacae FADD1-EC006 clinical isolates assessed as reduction in bacterial growth by broth microdilution method
[13] = tested on: Acinetobacter baumannii; experiment: Antibacterial activity against polymyxin-susceptible Acinetobacter baumannii ATCC 19606 clinical isolates assessed as reduction in bacterial growth by broth microdilution method
[14] = tested on: Pseudomonas aeruginosa; experiment: Antibacterial activity against Carbapenem-resistant Pseudomonas aeruginosa FADD1-PA022 clinical isolates assessed as reduction in bacterial growth by broth microdilution method
[15] = tested on: Pseudomonas aeruginosa; experiment: Antibacterial activity against Carbapenem-resistant Pseudomonas aeruginosa FADD1-PA001 clinical isolates assessed as reduction in bacterial growth by broth microdilution method
[16] = tested on: Pseudomonas aeruginosa; experiment: Antibacterial activity against polymyxin-susceptible Pseudomonas aeruginosa ATCC 27853 clinical isolates assessed as reduction in bacterial growth by broth microdilution method
[17] = tested on: Acinetobacter baumannii; experiment: Antibacterial activity against Carbapenem-resistant Acinetobacter baumannii FADD1-AB034 clinical isolates assessed as reduction in bacterial growth by broth microdilution method

| Structure (SMILES) | MIC [1] [µg/mL] | MIC [2] [µg/mL] | MIC [3] [µg/mL] | MIC [4] [µg/mL] | MIC [5] [µg/mL] | MIC [6] [µg/mL] | MIC [7] [µg/mL] | MIC [8] [µg/mL] | MIC [9] [µg/mL] | MIC [10] [µg/mL] | MIC [11] [µg/mL] | MIC [12] [µg/mL] | MIC [13] [µg/mL] | MIC [14] [µg/mL] | MIC [15] [µg/mL] | MIC [16] [µg/mL] | MIC [17] [µg/mL] |
| --- | --- | --- | --- | --- | --- | --- | --- | --- | --- | --- | --- | --- | --- | --- | --- | --- | --- |
| CC[C@H](C)CCCCC(=O)N[C@@H](CCN)C(=O)N[C@H](C(=O)N[C@@H](CCN)C(=O)N[C@H]1CCNC(=O)[C@H](Cc2c[nH]c3ccccc23)NC(=O)[C@H](CCN)NC(=O)[C@H](CCN)NC(=O)[C@H](CC(C)C)NC(=O)[C@@H](Cc2ccccc2)NC(=O)[C@H](CCN)NC1=O)[C@@H](C)O | 4 (≈ 3.1 µM) | 4 (≈ 3.1 µM) | 2 (≈ 1.55 µM) | 8 (≈ 6.21 µM) | 2 (≈ 1.55 µM) | 4 (≈ 3.1 µM) | 4 (≈ 3.1 µM) | 8 (≈ 6.21 µM) | 2 (≈ 1.55 µM) | 1 (≈ 0.776 µM) | 8 (≈ 6.21 µM) | 4 (≈ 3.1 µM) | 2 (≈ 1.55 µM) | 2 (≈ 1.55 µM) | 4 (≈ 3.1 µM) | 2 (≈ 1.55 µM) | 4 (≈ 3.1 µM) |
| CC[C@H](C)CCCCC(=O)N[C@@H](CCN)C(=O)N[C@H](C(=O)N[C@@H](CCN)C(=O)N[C@H]1CCNC(=O)[C@H](CCCCN)NC(=O)[C@H](CCN)NC(=O)[C@H](CCN)NC(=O)[C@H](CC(C)C)NC(=O)[C@@H](Cc2ccccc2)NC(=O)[C@H](CCN)NC1=O)[C@@H](C)O | > 32 | > 32 | 4 (≈ 3.25 µM) | > 32 | > 32 | 8 (≈ 6.5 µM) | 32 (≈ 26 µM) | 32 (≈ 26 µM) | 32 (≈ 26 µM) | 2 (≈ 1.63 µM) | 16 (≈ 13 µM) | 32 (≈ 26 µM) | 32 (≈ 26 µM) | 1 (≈ 0.813 µM) | > 32 | > 32 | 8 (≈ 6.5 µM) |
| CC[C@H](C)CCCCC(=O)N[C@@H](CCN)C(=O)N[C@H](C(=O)N[C@@H](CCN)C(=O)N[C@H]1CCNC(=O)[C@H](CC(=O)O)NC(=O)[C@H](CCN)NC(=O)[C@H](CCN)NC(=O)[C@H](CC(C)C)NC(=O)[C@@H](Cc2ccccc2)NC(=O)[C@H](CCN)NC1=O)[C@@H](C)O | > 32 | 32 (≈ 26.3 µM) | 16 (≈ 13.1 µM) | > 32 | > 32 | > 32 | 32 (≈ 26.3 µM) | > 32 | > 32 | 16 (≈ 13.1 µM) | > 32 | > 32 | > 32 | 8 (≈ 6.57 µM) | > 32 | > 32 | > 32 |
| CC[C@H](C)CCCCC(=O)N[C@@H](CCN)C(=O)N[C@H](C(=O)N[C@@H](CCN)C(=O)N[C@H]1CCNC(=O)[C@H](CCSC)NC(=O)[C@H](CCN)NC(=O)[C@H](CCN)NC(=O)[C@H](CC(C)C)NC(=O)[C@@H](Cc2ccccc2)NC(=O)[C@H](CCN)NC1=O)[C@@H](C)O | 2 (≈ 1.62 µM) | 2 (≈ 1.62 µM) | 1 (≈ 0.811 µM) | 4 (≈ 3.24 µM) | 2 (≈ 1.62 µM) | 4 (≈ 3.24 µM) | 2 (≈ 1.62 µM) | 8 (≈ 6.49 µM) | 2 (≈ 1.62 µM) | 1 (≈ 0.811 µM) | 4 (≈ 3.24 µM) | 16 (≈ 13 µM) | 4 (≈ 3.24 µM) | 1 (≈ 0.811 µM) | 2 (≈ 1.62 µM) | 1 (≈ 0.811 µM) | 4 (≈ 3.24 µM) |
| CC[C@H](C)CCCCC(=O)N[C@@H](CCN)C(=O)N[C@H](C(=O)N[C@@H](CCN)C(=O)N[C@H]1CCNC(=O)[C@H](Cc2ccc(O)cc2)NC(=O)[C@H](CCN)NC(=O)[C@H](CCN)NC(=O)[C@H](CC(C)C)NC(=O)[C@@H](Cc2ccccc2)NC(=O)[C@H](CCN)NC1=O)[C@@H](C)O | 8 (≈ 6.32 µM) | 1 (≈ 0.79 µM) | 4 (≈ 3.16 µM) | 8 (≈ 6.32 µM) | 2 (≈ 1.58 µM) | 2 (≈ 1.58 µM) | 4 (≈ 3.16 µM) | 16 (≈ 12.6 µM) | 4 (≈ 3.16 µM) | 0.5 (≈ 0.395 µM) | 8 (≈ 6.32 µM) | 16 (≈ 12.6 µM) | 2 (≈ 1.58 µM) | 1 (≈ 0.79 µM) | 4 (≈ 3.16 µM) | 2 (≈ 1.58 µM) | 2 (≈ 1.58 µM) |
| CC[C@H](C)CCCCC(=O)N[C@@H](CCN)C(=O)N[C@H](C(=O)N[C@@H](CCN)C(=O)N[C@H]1CCNC(=O)[C@H](CCC(=O)O)NC(=O)[C@H](CCN)NC(=O)[C@H](CCN)NC(=O)[C@H](CC(C)C)NC(=O)[C@@H](Cc2ccccc2)NC(=O)[C@H](CCN)NC1=O)[C@@H](C)O | > 32 | > 32 | > 32 | > 32 | > 32 | > 32 | > 32 | > 32 | > 32 | 32 (≈ 26 µM) | > 32 | > 32 | > 32 | > 32 | > 32 | > 32 | > 32 |
